Common to all, as to type: functional
Assay [1] relates to Streptococcus pneumoniae. The experiment in a line: Antibacterial activity against Streptococcus pneumoniae 1151 assessed as mutant prevention concentration by standard agar dilution method. For orientation: In agar dilution the substance is mixed into plates at graded concentrations.
The subject of assay [2] is Streptococcus pneumoniae. The experiment in a line: Antibacterial activity against Streptococcus pneumoniae 3321 assessed as mutant prevention concentration by standard agar dilution method.
The subject of assay [3] is Streptococcus pneumoniae. The experiment in a line: Antibacterial activity against Streptococcus pneumoniae 1135 assessed as mutant prevention concentration by standard agar dilution method.
The test system of assay [4] is Streptococcus pneumoniae. The experiment in a line: Antibacterial activity against Streptococcus pneumoniae 1135 by standard agar dilution method.
The subject of assay [5] is Streptococcus pneumoniae. The experiment in a line: Antibacterial activity against Streptococcus pneumoniae 3321 by standard agar dilution method.
For assay [6], the system named is Streptococcus pneumoniae. The experiment in a line: Antibacterial activity against Streptococcus pneumoniae 1072 by standard agar dilution method.
Assay [7] relates to Streptococcus pneumoniae. The experiment in a line: Antibacterial activity against Streptococcus pneumoniae ATCC 49619 assessed as 50% mutant prevention concentration.
In assay [8] the test system is Streptococcus pneumoniae. The experiment in a line: Antibacterial activity against Streptococcus pneumoniae 1149 assessed as mutant prevention concentration by standard agar dilution method.
The subject of assay [9] is Streptococcus pneumoniae. The experiment in a line: Antibacterial activity against Streptococcus pneumoniae 1065 by standard agar dilution method.
For assay [10], the system named is Streptococcus pneumoniae. The experiment in a line: Antibacterial activity against Streptococcus pneumoniae 1065 assessed as mutant prevention concentration by standard agar dilution method.
Assay [11] deals with Streptococcus pneumoniae. The experiment in a line: Antibacterial activity against Streptococcus pneumoniae ATCC 49619 assessed as 90% mutant prevention concentration.
In assay [12] the test system is Streptococcus pneumoniae. The experiment in a line: Antibacterial activity against Streptococcus pneumoniae 1058 by standard agar dilution method.
Assay [13] deals with Streptococcus pneumoniae. The experiment in a line: Antibacterial activity against Streptococcus pneumoniae 1072 assessed as mutant prevention concentration by standard agar dilution method.
Assay [14] deals with Streptococcus pneumoniae. The experiment in a line: Ratio of 90% mutant prevention concentration to MIC90 in Streptococcus pneumoniae ATCC 49619.
Assay [15] concerns Streptococcus pneumoniae. The experiment in a line: Ratio of 50% mutant prevention concentration to MIC50 in Streptococcus pneumoniae ATCC 49619.
Assay [16] relates to Streptococcus pneumoniae. The experiment in a line: Antibacterial activity against Streptococcus pneumoniae 1149 by standard agar dilution method.
Assay [17] concerns Streptococcus pneumoniae. The experiment in a line: Antibacterial activity against Streptococcus pneumoniae 1151 by standard agar dilution method.
The subject of assay [18] is Streptococcus pneumoniae. The experiment in a line: Antibacterial activity against Streptococcus pneumoniae ATCC 49619.
In assay [19] the test system is Streptococcus pneumoniae. The experiment in a line: Antibacterial activity against Streptococcus pneumoniae 1058 assessed as mutant prevention concentration by standard agar dilution method.
The nature of assay [20]: Ratio of AUC to MIC in Streptococcus pneumoniae ATCC 49619.

≈ marks a conversion by molar mass, not a printed value.

Broadly, the MIC is the lowest concentration that inhibits growth of the organism. Read a high MIC as a less susceptible organism. The term MIC50 denotes the lowest concentration that inhibits either 50% of growth or 50% of the strains tested, depending on the study. The low end stands for greater potency, the high end for weaker potency. As usually defined, the MIC90 is the lowest concentration that inhibits either 90% of growth or 90% of the strains tested, depending on the study. A higher MIC90 goes with lower susceptibility. On to `COc1c(N2C[C@@H]3CCCN[C@@H]3C2)c(F)cc2c(=O)c(C(=O)O)cn(C3CC3)c12` [MOXIFLOXACIN], for which the Activity in assay [1] was more than 8 µg/mL; in assay [2], more than 8 µg/mL; in assay [3], 32 µg/mL; in [7], 1 µg/mL; in [8], more than 8 µg/mL; in assay [10], more than 8 µg/mL. The Activity in assay [11] was 16 µg/mL; in assay [13], 64 µg/mL; in assay [19], more than 4 µg/mL. The MIC in [4] came to 2 µg/mL (≈ 4.98 µM); in assay [5], 0.5 µg/mL (≈ 1.25 µM); in assay [6], 8 µg/mL (≈ 19.9 µM); in [9] it was 0.5 µg/mL (≈ 1.25 µM); in [12], 0.5 µg/mL (≈ 1.25 µM); in assay [16], 0.5 µg/mL (≈ 1.25 µM). In assay [17], this molecule registered an MIC of 1 µg/mL (≈ 2.49 µM). The results for the Ratio in assay [14] and in assay [15] were 4 and 2, respectively. Besides, in assay [18], the MIC50 stood at 0.5 µg/mL (≈ 1.25 µM). Also, in assay [18], the MIC90 is 4 µg/mL (≈ 9.96 µM).
As for `C[C@H]1COc2c(N3CCN(C)CC3)c(F)cc3c(=O)c(C(=O)O)cn1c23.C[C@H]1COc2c(N3CCN(C)CC3)c(F)cc3c(=O)c(C(=O)O)cn1c23.O` [LEVOFLOXACIN], the Activity in assay [1] is 32 µg/mL; in assay [2], 32 µg/mL; in [3] it was 128 µg/mL; in [7], 4 µg/mL; in assay [8], more than 64 µg/mL; in [10], 32 µg/mL. For the same molecule, the Activity in assay [11] stood at 64 µg/mL; in assay [13], 256 µg/mL; in assay [19] it was 64 µg/mL. In assay [18], the MIC50 was 2 µg/mL. Moreover, the MIC90 in assay [18] turned out to be 32 µg/mL.
As to `CO/N=C1\CN(c2nc3c(cc2F)c(=O)c(C(=O)O)cn3C2CC2)CC1CN` (configuration not stated) [GEMIFLOXACIN], the Activity in assay [1] is 8 µg/mL; in assay [2], 2 µg/mL; in assay [3], 4 µg/mL; in assay [7], 0.5 µg/mL; in assay [8], more than 8 µg/mL; in assay [10], 4 µg/mL. Moreover, the Activity in assay [11] stood at 4 µg/mL; in assay [13], 8 µg/mL; in [19], 1 µg/mL. Besides, the MIC in [4] turned out to be 0.5 µg/mL (≈ 1.28 µM); in assay [5], 0.125 µg/mL (≈ 0.321 µM); in [6], 1 µg/mL (≈ 2.57 µM); in assay [9], 0.125 µg/mL (≈ 0.321 µM); in assay [12], 0.125 µg/mL (≈ 0.321 µM); in assay [16], 0.5 µg/mL (≈ 1.28 µM). This molecule also displayed an MIC in [17] of 1 µg/mL (≈ 2.57 µM). In addition, the Ratio in assay [14] and in assay [15] was 4 each time. The molecule also gave an MIC50 in assay [18] of 0.125 µg/mL (≈ 0.321 µM). This molecule also had an MIC90 in assay [18] of 1 µg/mL (≈ 2.57 µM).
For the molecule `O=C(O)c1cn(C2CC2)c2cc(N3CCNCC3)c(F)cc2c1=O`, the RatioAUC/MIC in assay [20] was 30.

Values taken from ChEMBL document CHEMBL1212804, “Comparative study of the mutant prevention concentrations of moxifloxacin, levofloxacin, and gemifloxacin against pneumococci” (2010).
